Data: patent US20090285773A1, “Hepatitis C Virus Inhibitors” (Bristol-Myers Squibb Company, priority 2008, published 2009)

Tests used:
[1] = target: HCV NS3/4A protease complex, BMS strain (genotype 1a) (UniProt P27958, species not given/STRAIN_BMS); assay: FRET peptide assay, HCV NS3/4A protease complex, BMS strain; format: biochemical; conditions: read-out: IC50 against the NS3/4A BMS strain in the enzyme assay
Description: HCV NS3 protease complexes, derived from the BMS strain, H77 strain or J4L6S strain, were generated, as described below. These purified recombinant proteins were generated for use in a homogeneous assay (see below) to provide an indication of how effective compounds of the present disclosure would be in inhibiting HCV NS3 proteolytic activity.
Serum from an HCV-infected patient was obtained from Dr. T. Wright, San Francisco Hospital. […]
In order to monitor HCV NS3/4A protease activity, an NS3/4A peptide substrate was used. […] The peptide also contains a fluorescence donor, EDANS, near one end of the peptide and an acceptor, DABCYL, near the other end. The fluorescence of the peptide is quenched by […] resonance energy transfer (RET) between the donor and the acceptor, but as the NS3 protease cleaves the peptide the products are released from RET quenching and the fluorescence of the donor becomes apparent.
The peptide substrate was incubated with one of the three recombinant NS3/4A protease complexes, in the absence or presence of a compound of the present disclosure. The inhibitory effects of a compound were determined by monitoring the formation of fluorescent reaction product in real time using a Cytofluor Series 4000. […]

human liver cathepsin B = target: T1, human liver cathepsin B (Homo sapiens, UniProt P07858); assay: Specificity assay, cathepsin B; format: biochemical; conditions: read-out: Cathepsin B activity in the specificity assays
T1 construct: host or cells: human liver
Procedure: The specificities of compounds of the present disclosure were determined against a variety of serine proteases: human neutrophil elastase (HNE), porcine pancreatic elastase (PPE) and human pancreatic chymotrypsin and one cysteine protease: human liver cathepsin B. In all cases a 96-well plate format protocol using a fluorometric Amino-Methyl-Coumarin (AMC) substrate specific for each enzyme was used as described previously (PCT Patent Application No. WO 00/09543) with some modifications to the serine protease assays. All enzymes were purchased from Sigma, EMDbiosciences while the substrates were from Bachem, Sigma and EMDbiosciences.
Compound concentrations varied from 100 to 0.4 μM depending on their potency. The enzyme assays were each initiated by addition of substrate to enzyme-inhibitor pre-incubated for 10 min at room temperature and hydrolysis to 15% conversion as measured on cytofluor. […]
The percentage of inhibition was calculated using the formula: […]

Sequence of HCV NS3/4A protease complex, BMS strain (genotype 1a) (P27958 1027-1657, stated change not applied, one chain of several): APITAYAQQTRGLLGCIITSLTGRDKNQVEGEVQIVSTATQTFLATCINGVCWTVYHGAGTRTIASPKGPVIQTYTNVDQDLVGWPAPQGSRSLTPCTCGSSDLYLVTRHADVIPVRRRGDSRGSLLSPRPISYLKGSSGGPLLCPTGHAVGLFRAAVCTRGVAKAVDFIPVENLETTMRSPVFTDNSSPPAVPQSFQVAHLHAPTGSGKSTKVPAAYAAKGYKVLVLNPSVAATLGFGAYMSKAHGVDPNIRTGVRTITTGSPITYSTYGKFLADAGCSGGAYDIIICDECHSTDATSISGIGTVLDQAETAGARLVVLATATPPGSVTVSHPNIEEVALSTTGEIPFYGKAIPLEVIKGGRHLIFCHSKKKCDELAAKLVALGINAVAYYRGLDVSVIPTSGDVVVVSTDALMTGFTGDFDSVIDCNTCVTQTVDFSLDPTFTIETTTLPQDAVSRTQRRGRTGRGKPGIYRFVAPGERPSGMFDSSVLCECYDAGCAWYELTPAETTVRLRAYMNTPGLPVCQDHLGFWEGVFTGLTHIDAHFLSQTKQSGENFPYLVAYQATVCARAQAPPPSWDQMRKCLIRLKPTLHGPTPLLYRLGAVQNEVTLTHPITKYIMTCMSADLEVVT

In the case of `COc1ccc2c(O[C@@H]3C[C@H]4C(=O)N[C@]5(C(=O)NS(=O)(=O)C6CC6)C[C@H]5/C=C\CCCCC[C@H](Nc5ccc(OC)nc5)C(=O)N4C3)nccc2c1` (single isomer, unassigned) [Compound 1], the IC50 [1] is reported as 8.7 nM and the IC50 (human liver cathepsin B) is reported as over 25000 nM.
